# Assay results: PubChem BioAssay AID463224 (The Scripps Research Institute Molecular Screening Center, 2010)
# pIC50: −log10 of the molar value.
# Target: Serine/threonine-protein phosphatase 5 (Homo sapiens) (UniProt P53041)
# Assay: PP5 inhibitor potency, dose response, orthogonal assay for PP5 inhibitor project, biochemical, radiolabel, powder samples (AID 463224)
# Conditions: purified PP5c, 33P-phosphohistone dephosphorylation, scintillation
# Sequence of Serine/threonine-protein phosphatase 5 (Homo sapiens) (P53041 whole entry, looked up): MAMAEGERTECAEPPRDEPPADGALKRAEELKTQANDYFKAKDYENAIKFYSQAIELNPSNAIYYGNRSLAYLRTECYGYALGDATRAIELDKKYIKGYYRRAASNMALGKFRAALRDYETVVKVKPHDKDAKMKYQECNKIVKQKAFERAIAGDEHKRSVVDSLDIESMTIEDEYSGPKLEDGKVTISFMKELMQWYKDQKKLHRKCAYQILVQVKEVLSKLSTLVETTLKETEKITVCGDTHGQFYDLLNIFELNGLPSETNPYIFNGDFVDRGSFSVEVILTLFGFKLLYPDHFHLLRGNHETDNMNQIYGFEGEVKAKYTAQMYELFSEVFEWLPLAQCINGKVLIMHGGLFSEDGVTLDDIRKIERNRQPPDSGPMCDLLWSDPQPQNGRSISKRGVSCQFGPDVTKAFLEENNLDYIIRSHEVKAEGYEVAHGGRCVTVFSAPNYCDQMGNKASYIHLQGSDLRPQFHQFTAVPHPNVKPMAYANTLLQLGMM
row,Compound,pIC50
1,O=C(O)c1n[nH]nc1-c1ccccc1,4.39
2,O=C(O)C1C2CCC(O2)C1C(=O)NC1CCCCC1 (configuration not stated),4.87
